# From PMC12655637, “Design, Synthesis, and Mechanistic Study of Novel Ciprofloxacin/Thiazole Chalcone Hybrids as Potential Anticancer Agents” (Pharmaceuticals, 2025)
# Experiments:
# [1] = system: 60 human cancer cell lines; assay: NCI-60 screening, full panel (mean growth, MID a, ranges over all lines); details: Homo sapiens, read-out: Mean growth percentage
# Experimental: The screening was performed in accordance with the protocols set forth by the Drug Evaluation Department of the National Cancer Institute (NCI), Bethesda, USA, for in vitro anticancer efficacy at a single concentration of 10 µM against a panel of 60 cancer cell lines derived from nine distinct organs (https://dctd.cancer.gov/data-tools-biospecimens/data (accessed on 15 March 2023 and 6 January 2024)) [37].
# The log10 GI50, log10 TGI, and log10 LC50 values were subsequently calculated as the averages of the log10 values of the respective individual GI50, TGI, and LC50 measurements. Negative numbers signified the most sensitive cell lines.
# One way to measure a compound’s selectivity is to divide its subpanel MID^b (in μM) by the MID^a (in μM), which is the average sensitivity of all cell lines to the test agent.
# At the National Cancer Institute (NCI) in Bethesda, USA, researchers examined the anticancer potential of the target compounds under investigation using nine panels of sixty different cell lines obtained from nine different cancers that were housed in the NCI library. Following the protocols laid out by the National Cancer Institute (https://dctd.cancer.gov/data-tools-biospecimens/data (accessed on 15 March 2023 and 6 January 2024)), the screening procedures were carried out [37]. The anticancer screening was carried out at a single dose of 10^−5 M; the results obtained were expressed as growth inhibition (%).
# The anti-cancer potential of the tested compounds was evaluated at the National cancer institute (NCI), Bethesda, USA, against 9 panels of 60 various cell lines derived from nine human tumours available usually at NCI library. The procedures for the screening were described in details in NCI website (dttp://www.dtp.nci.nih.gov.) and were done according to NCI protocols. The anticancer screening was carried out at single dose of 10^-5 M. The results obtained as growth inhibition (%).
# Cell lines were grown in Roswell Park Memorial Institute medium (RPMI) with 5% fetal bovine serum and 2% μM L-glutamine. Cancer cells are inoculated into 96 well microtiter plates in 100 μL at plating densities ranging from 5000 to 40,000 cells/well depending on the doubling time of individual cell lines. Then microtiter plates are incubated at 37 °C, 5% CO2, 95% air and 100% relative humidity for 24 h prior to the addition of the tested compounds. After 24 h, two plates of each cell line are fixed in situ with trichloroacetic acid (TCA). The tested compounds were dissolved in dimethyl sulfoxide (DMSO) and stored in the freezer prior to use. An aliquot of frozen drug concentrate is diluted to the desired concentration with complete medium containing 50 μg/mL gentamicin.
# CAKI-1 = assay: NCI-60 screening, one-dose (10 µM) and five-dose, SRB; type: cell-based; details: Homo sapiens, CAKI-1, read-out: Growth percentage
# SR = assay: as above; type: cell-based, human; details: 10 μM, Leukemia
# RXF 393 = assay: as above; type: cell-based; details: Homo sapiens; 10 μM; RXF 393, Renal Cancer; read-out: Growth percentage
# SK-OV-3 = assay: as above; type: cell-based, human; details: Homo sapiens; 10 μM; SK-OV-3, Ovarian Cancer; read-out: Growth percentage
# SF-539 = assay: as above; type: cell-based, human; details: Homo sapiens, SF-539, 10 μM; SF-539, CNS Cancer; read-out: Growth percentage
# CCRF-CEM = assay: as above; type: cell-based, human; details: Homo sapiens, 10 μM, Leukemia, read-out: Growth percentage
# EKVX = assay: as above; type: cell-based, human; details: Homo sapiens, 10 μM, Non-Small-Cell Lung Cancer, read-out: Growth percentage
# NCI-H226 = assay: as above; type: cell-based, human; details: Homo sapiens; 10 μM; NCI-H226, Non-Small-Cell Lung Cancer; read-out: Growth percentage
# NCI-H522 = assay: as above; type: cell-based, human; details: Homo sapiens; 10 μM; NCI-H522, Non-Small-Cell Lung Cancer; read-out: Growth percentage
# MDA-MB-468 = assay: as above; type: cell-based, human; details: Homo sapiens, MDA-MB-468, 10 μM; MDA-MB-468, Breast Cancer; read-out: Growth percentage
# From the text: Control cells Test cells FLD
# available usually at NCI library.
# An aliquot of frozen drug concentrate is […]
# BT-549 = assay: as above; type: cell-based; details: Homo sapiens; 10 μM; BT-549, Breast Cancer; read-out: Growth percentage
# UACC-62 = assay: as above; type: cell-based; details: Homo sapiens; 10 μM; UACC-62, Melanoma; read-out: Growth percentage
# COLO 205 = assay: as above; type: cell-based, human; details: Homo sapiens; 10 μM; COLO 205, Colon Cancer; read-out: Growth percentage
# SK-MEL-2 = assay: as above; type: cell-based, human; details: Homo sapiens; 10 μM; SK-MEL-2, Melanoma; read-out: Growth percentage
# T-47D = assay: as above; type: cell-based, human; details: 10 μM, Breast Cancer
# OVCAR-8 = assay: as above; type: cell-based, human; details: Homo sapiens; 10 μM; OVCAR-8, Ovarian Cancer; read-out: Growth percentage
# OVCAR-3 = assay: as above; type: cell-based; details: Homo sapiens; 10 μM; OVCAR-3, Ovarian Cancer; read-out: Growth percentage
# A549/ATCC = assay: as above; type: cell-based, human; details: Homo sapiens, 10 μM, Non-Small-Cell Lung Cancer, read-out: Growth percentage
# SF-268 = assay: as above; type: cell-based, human; details: Homo sapiens; 10 μM; SF-268, CNS Cancer; read-out: Growth percentage
# U251 = assay: as above; type: cell-based, human; details: Homo sapiens, U-251; 10 μM; U251, CNS Cancer; read-out: Growth percentage
# MDA-MB-435 = assay: as above; type: cell-based; details: Homo sapiens, MDA-MB-435, read-out: Growth percentage, 10 μM; MDA-MB-435, Melanoma
# NCI-H23 = assay: as above; type: cell-based, human; details: Homo sapiens; 10 μM; NCI-H23, Non-Small-Cell Lung Cancer; read-out: Growth percentage
# TK-10 = assay: as above; type: cell-based, human; details: Homo sapiens; 10 μM; TK-10, Renal Cancer; read-out: Growth percentage
# SK-MEL-28 = assay: as above; type: cell-based, human; details: Homo sapiens; 10 μM; SK-MEL-28, Melanoma; read-out: Growth percentage
# HOP-92 = assay: as above; type: cell-based, human; details: Homo sapiens; 10 μM; HOP-92, Non-Small-Cell Lung Cancer; read-out: Growth percentage
# MOLT-4 = assay: as above; type: cell-based, human; details: Homo sapiens; 10 μM; MOLT-4, Leukemia; read-out: Growth percentage
# OVCAR-4 = assay: as above; type: cell-based, human; details: Homo sapiens; 10 μM; OVCAR-4, Ovarian Cancer; read-out: Growth percentage
# NCI-H460 = assay: as above; type: cell-based, human; details: Homo sapiens, NCI-H460, 10 μM; NCI-H460, Non-Small-Cell Lung Cancer; read-out: Growth percentage
# ACHN = assay: as above; type: cell-based, human; details: Homo sapiens, 10 μM, Renal Cancer, read-out: Growth percentage
structure (smiles),measurement,setting,value
"Cc1nc(SCC(=O)N2CCN(c3cc4c(cc3F)c(=O)c(C(=O)O)cn4C3CC3)CC2)sc1C(=O)/C=C/c1ccc(Cl)cc1 [Compound 4c, (E)-7-(4-(2-((5-(3-(4-Chlorophenyl)acryloyl)-4-methylthiazol-2-yl)thio)acetyl)piperazin-1-yl)-1-cyclopropyl-6-fluoro-4-oxo-1,4-dihydroquinoline-3-carboxylic Acid]",activity at 10 µM,[1],103%
same,activity at 10 µM,CAKI-1,100%
same,Growth percentage,SR,35.32%
same,activity at 10 µM,RXF 393,109%
same,activity at 10 µM,SK-OV-3,129%
same,activity at 10 µM,SF-539,97.7%
same,activity at 10 µM,CCRF-CEM,102%
same,activity at 10 µM,EKVX,103%
same,activity at 10 µM,NCI-H226,107%
same,activity at 10 µM,NCI-H522,95.9%
same,activity at 10 µM,MDA-MB-468,110%
same,activity at 10 µM,BT-549,85.9%
same,activity at 10 µM,UACC-62,94.9%
same,activity at 10 µM,COLO 205,107%
same,activity at 10 µM,SK-MEL-2,99.4%
same,Growth percentage,T-47D,116.3%
same,activity at 10 µM,OVCAR-8,76.3%
same,activity at 10 µM,OVCAR-3,188%
same,activity at 10 µM,A549/ATCC,115%
same,activity at 10 µM,SF-268,180%
same,activity at 10 µM,U251,111%
same,activity at 10 µM,MDA-MB-435,102%
same,activity at 10 µM,NCI-H23,96.5%
same,activity at 10 µM,TK-10,106%
same,activity at 10 µM,SK-MEL-28,100%
same,activity at 10 µM,HOP-92,119%
same,activity at 10 µM,MOLT-4,103%
same,activity at 10 µM,OVCAR-4,107%
same,activity at 10 µM,NCI-H460,106%
same,activity at 10 µM,ACHN,96.4%
